Laboratory results as given in ChEMBL document CHEMBL1148004, “Synthesis, characterization and antiamoebic activity of new indole-3-carboxaldehyde thiosemicarbazones and their Pd(II) complexes” (Eur J Med Chem, 2007).

System: Entamoeba histolytica
Assay: Antiamoebic activity against Entamoeba histolytica HM1:IMSS by microdilution method
Assay type: functional, organism-based

Compound | IC50 [µM]
S=C(N/N=C\c1c[nH]c2ccccc12)N1CCCC1 | 14.6
S=C(N/N=C\c1c[nH]c2ccccc12)NC1C2CC3CC(C2)CC1C3 (configuration not stated) | 1.08
S=C(N/N=C\c1c[nH]c2ccccc12)NC1CCCC1 | 13.9
S=C(N/N=C\c1c[nH]c2ccccc12)NC1CCCCCCC1 | 6.08
CC1CCN(C(=S)N/N=C\c2c[nH]c3ccccc23)CC1 | 8.37
S=C(N/N=C\c1c[nH]c2ccccc12)N1CCCc2ccccc21 | 1.68
S=C(N/N=C\c1c[nH]c2ccccc12)N1CCN(c2ccccc2)CC1 | 3.09
